In the supplement of paper PMC10307832:

How the values were obtained:
Assay in all cases: relative viability (nuclei count vs DMSO), 5 days (fraction); higher = more cells survive
[1] = compound: Clc1ccc(Nc2nnc(Cc3ccncc3)c3ccccc23)cc1 [Vatalanib]
Outline: (§1)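 Viability is treated-well nuclei as a fraction of vehicle-well nuclei, reported as the median across plates. Before counting, lung cancer cell lines were kept overnight at 37 °C in 1536-well plates, pinned with five √10-spaced library-drug doses on vehicle-anchored plates, and left 5 days without medium change, then fixed, permeabilised and Hoechst-stained in one step, imaged at 4× and counted by MetaXpress. A plate passed only if control CV was below 25% and at least one doubling occurred.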

[2] = compound: CC(C)S(=O)(=O)C1=CC=CC=C1NC2=NC(=NC(=C2Cl)N)NC3=C(C=C(C=C3)N4CCC(CC4)C(=O)N)OC [HG-5-88-01]
Outline: as §1

[3] = compound: CC(C)Oc1cc(Nc2nc(N[C@@H](C)c3ccc(F)cn3)ncc2Cl)n[nH]1 [AZ23]
Outline: as §1

[4] = compound: CCCCCCCCCCCC1=C(O)C(=O)C=C(O)C1=O [Embelin]
Outline: as §1

[5] = compound: C[C@@H]1CN(CC(=O)Nc2ccc3c(c2)Cc2cccc(-c4cc(=O)cc(N5CCOCC5)o4)c2S3)C[C@H](C)O1
Outline: as §1

Cell Line | relative viability ([1]; 0.04 µM) | relative viability ([1]; 0.1265 µM) | relative viability ([1]; 0.4 µM) | relative viability ([1]; 1.265 µM) | relative viability ([1]; 4 µM) | relative viability ([2]; 0.04 µM) | relative viability ([2]; 0.1265 µM) | relative viability ([2]; 0.4 µM) | relative viability ([2]; 1.265 µM) | relative viability ([2]; 4 µM) | relative viability ([3]; 0.01 µM) | relative viability ([3]; 0.03162 µM) | relative viability ([3]; 0.3162 µM) | relative viability ([4]; 0.08 µM) | relative viability ([4]; 0.8 µM) | relative viability ([4]; 2.53 µM) | relative viability ([4]; 8 µM) | relative viability ([5]; 0.04 µM) | relative viability ([5]; 0.1265 µM) | relative viability ([5]; 0.4 µM) | relative viability ([5]; 4 µM)
HARA | 0.88 | 0.99 | 1.12 | 0.878 | 1.03 | 1.04 | 0.979 | 0.923 | 0.598 | 0.805 | 0.821 | 1.1 | 1.07 | 0.963 | 1.12 | 1.05 | 0.929 | 0.931 | 0.908 | 0.873 | 0.911
NCI-H2009 | 1.15 | 0.928 | 1.1 | 0.952 | 0.98 | 1.05 | 1.07 | 0.931 | 0.951 | 0.947 | 1.01 | 1.1 | 1.09 | 1.01 | 1.19 | 0.959 | 1 | 1.05 | 1.01 | 0.935 | 0.766
NCI-H441 | 1.16 | 0.922 | 1.08 | 1.08 | 0.933 | 1.09 | 1.33 | 1.24 | 0.925 | 0.819 | 1.43 | 1.01 | 1.06 | 1.05 | 1.19 | 1.45 | 1.02 | 1.2 | 0.787 | 1.04 | 0.948
PC-14 | 1.01 | 0.921 | 0.905 | 0.904 | 0.958 | 1.05 | 0.985 | 0.901 | 0.735 | 0.38 | 0.748 | 1.22 | 1.08 | 0.997 | 1.15 | 1 | 1.06 | 1 | 0.943 | 1.02 | 0.863
A-427 | 1.03 | 0.97 | 0.983 | 0.863 | 0.989 | 0.94 | 1.02 | 1.02 | 1.11 | 0.534 | 0.921 | 1.07 | 1.15 | 1.06 | 1.03 | 1.04 | 0.943 | 0.956 | 0.945 | 1.06 | 0.938
NCI-H1651 | 1.01 | 0.935 | 0.955 | 0.92 | 0.958 | 0.994 | 0.993 | 0.986 | 0.976 | 1.07 | 0.947 | 1.05 | 1.05 | 0.992 | 1.03 | 1.03 | 0.946 | 0.954 | 0.954 | 1.03 | 0.981
LU99A | 1.03 | 1.02 | 1.06 | 0.951 | 0.923 | 0.963 | 0.958 | 0.873 | 1.02 | 0.907 | 1.04 | 0.998 | 0.941 | 1.08 | 1.07 | 1.08 | 0.948 | 0.86 | 1.05 | 1.15 | 0.975
NCI-H522 | 1.1 | 0.767 | 0.966 | 0.917 | 0.876 | 1.04 | 0.903 | 0.849 | 0.804 | 0.706 | 1.04 | 1.12 | 1.09 | 1.01 | 1.13 | 1.15 | 0.821 | 0.77 | 1 | 1.11 | 0.864
LXF-289 | 1.05 | 0.935 | 1.02 | 0.958 | 1 | 1.04 | 1.03 | 0.976 | 0.974 | 0.986 | 1.17 | 1.04 | 1.02 | 1.04 | 1.04 | 1.01 | 1.09 | 0.974 | 1.01 | 1.04 | 0.976
HCC-366 | 1.01 | 0.881 | 1.01 | 0.975 | 0.978 | 0.998 | 1.01 | 0.987 | 0.987 | 1.05 | 1.04 | 1.03 | 1.03 | 1.01 | 1.03 | 1.09 | 1.06 | 1.01 | 0.987 | 1.08 | 0.925
COR-L 105 | 0.901 | 0.895 | 1.03 | 0.892 | 0.835 | 0.825 | 0.969 | 0.883 | 0.726 | 0.685 | 0.843 | 1.1 | 1.04 | 1.04 | 1.1 | 0.89 | 0.981 | 0.921 | 1.01 | 1.05 | 0.805
NCI-H1944 | 0.987 | 0.848 | 1.1 | 1.01 | 0.907 | 0.988 | 1.01 | 0.913 | 0.972 | 0.902 | 0.971 | 1.13 | 1.05 | 1 | 1.07 | 1.06 | 0.961 | – | 0.958 | 1.03 | 0.952
EKVX | 0.934 | 0.849 | 0.975 | 0.818 | 0.871 | 0.923 | 1.02 | 0.875 | – | 0.934 | 0.932 | 1.11 | 0.976 | 0.966 | 1.02 | 0.964 | 1.03 | 0.975 | 0.971 | 0.898 | 0.882
NCI-H2170 | 1.03 | 0.979 | 0.997 | 0.987 | 0.944 | 0.977 | 1.02 | 0.899 | 0.706 | 1.01 | 1.07 | 0.977 | 1.2 | 0.981 | 1.01 | 1.09 | 0.919 | 0.989 | 0.997 | 0.985 | 0.888
NCI-H2342 | 1 | 0.913 | 0.97 | 1.03 | 0.975 | 0.759 | 1.1 | 0.93 | 0.728 | 1.05 | 0.993 | 0.942 | 1.02 | 0.894 | 1.02 | 1.15 | 0.898 | 1.01 | 0.847 | 0.83 | 0.786
NCI-H1395 | 0.939 | 0.871 | 0.863 | 0.813 | 0.885 | 0.9 | 0.97 | 0.921 | 0.953 | 0.876 | – | 1.01 | 0.849 | 0.941 | 1.15 | 0.857 | 0.617 | 0.854 | 0.816 | 0.761 | 0.999
